Measurements as given in patent publication US8664257B2, “Oxygen-substituted 3-heteroaroylamino-propionic acid derivatives and their use as pharmaceuticals” (Sanofi, priority 2010, dated 2014).

Target: T1, Recombinant human cathepsin A (Homo sapiens, UniProt P10619)
T1 construct: Recombinant human cathepsin A (residues 29-480, with a C-terminal 10-His tag); 10-His (C); purchased R&D Systems 1049-SE
T1 sequence (P10619 29-312 limits assumed): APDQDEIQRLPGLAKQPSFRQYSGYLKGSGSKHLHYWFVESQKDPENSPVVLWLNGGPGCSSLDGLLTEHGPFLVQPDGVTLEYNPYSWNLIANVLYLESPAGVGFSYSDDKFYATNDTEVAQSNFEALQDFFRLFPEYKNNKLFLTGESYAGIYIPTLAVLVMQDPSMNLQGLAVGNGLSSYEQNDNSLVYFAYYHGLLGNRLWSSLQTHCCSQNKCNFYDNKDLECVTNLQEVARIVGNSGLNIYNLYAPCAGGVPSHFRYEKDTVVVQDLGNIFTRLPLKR
T1 sequence (P10619 327-480 limits assumed): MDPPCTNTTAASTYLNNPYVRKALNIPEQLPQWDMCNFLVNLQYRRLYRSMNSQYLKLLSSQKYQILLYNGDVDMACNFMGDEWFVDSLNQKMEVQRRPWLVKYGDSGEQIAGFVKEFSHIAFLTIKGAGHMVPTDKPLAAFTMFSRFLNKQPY
Assay: Cathepsin A inhibitory activity
Format: biochemical
Conditions: pharmacological test "Cathepsin A inhibitory activity"; IC50 given as class A/B/C; read-out: Activity (2): Cathepsin A inhibitory activity, IC50 class
How it was run: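 Human cathepsin A (res. 29-480, C-His10) pre-activated with cathepsin L (MES pH 6.0, DTT, 15 min, 37 °C; quenched with 10 μM E-64). Enzyme (833 ng/ml) preincubated 15 min RT with compound in MES pH 5.5/DTT, then 2 μM Bodipy FL-bradykinin for 15 min RT. Capillary electrophoresis product/substrate peak areas; IC50 from % inhibition.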

Row | IC50 | SMILES
1 | 100 to 1000 nM | O=C(O)CC(NC(=O)c1cc(O)n(-c2ccc(F)cc2F)n1)c1ccc(-c2ccccc2)cc1 (stereo not drawn) [Example 197]

Same assay, conditions: read-out: Activity (2): Cathepsin A inhibitory activity (IC50 class)

Row | IC50 | SMILES
2 | < 100 nM | CCC(C)(O)COc1cc(C(=O)N[C@@H](CC(=O)O)c2ccccc2C)nn1-c1ccccc1F (stereo partly drawn) [Example 750]
3 | < 100 nM | Cc1ccccc1[C@H](CC(=O)O)NC(=O)c1cc(OC[C@@](C)(O)C2CC2)n(-c2ccccc2F)n1 (single isomer, unassigned) [Example 764]
4 | < 100 nM | CCC(O)COc1cc(C(=O)N[C@@H](CC(=O)O)c2ccccc2C)nn1-c1ccccc1F (stereo partly drawn) [Example 755]
5 | < 100 nM | COc1cccc(COc2cc(C(=O)N[C@@H](CC(=O)O)c3ccccc3C)nn2-c2ccccc2F)c1 [Example 655]
6 | 100 to 1000 nM | COc1cc(C(=O)N[C@@H](CC(=O)O)c2ccccc2F)nn1-c1ccccc1F [Example 679]
7 | < 100 nM | COc1ccc(C(CC(=O)O)NC(=O)c2cc(OCC3CC3)n(-c3ccccc3F)n2)c(C)c1 (stereo not drawn) [Example 692]
8 | < 100 nM | Cc1ccccc1[C@H](CC(=O)O)NC(=O)c1cc(O)n(C2CCCCC2)n1 [Example 573]
9 | 100 to 1000 nM | CCOc1cc(C(=O)NC(CC(=O)O)c2ccc(F)cc2)nn1-c1ccccc1F (stereo not drawn) [Example 719]

Same assay, conditions: read-out: Activity (2): Cathepsin A inhibitory activity, IC50 class

Row | IC50 | SMILES
10 | 100 to 1000 nM | O=C(O)CC(NC(=O)c1cc(O)n(-c2ccc(Cl)cc2)n1)c1cccc(Cl)c1Cl (stereo not drawn) [Example 281]
11 | 100 to 1000 nM | O=C(O)CC(NC(=O)c1cc(O)n(-c2ccccc2Cl)n1)c1ccc(Oc2ccccc2)cc1 (stereo not drawn) [Example 113]
12 | 100 to 1000 nM | Cc1cccc(C(CC(=O)O)NC(=O)c2cc(O)n(-c3ccccc3)n2)c1 (stereo not drawn) [Example 65]
13 | 100 to 1000 nM | O=C(O)C[C@H](NC(=O)c1cc(O)n(-c2ccccc2)n1)c1ccc(Cl)cc1 [Example 98]
14 | 100 to 1000 nM | COc1ccc(C(CC(=O)O)NC(=O)c2cc(O)n(-c3ccccc3F)n2)c(F)c1 (stereo not drawn) [Example 133]
15 | 1000 to 30000 nM | CC(C)(C)Oc1ccc(C(CC(=O)O)NC(=O)c2cc(O)n(-c3ccccc3)n2)cc1 (stereo not drawn) [Example 23]
16 | 1000 to 30000 nM | Cc1ccccc1[C@H](CC(=O)O)NC(=O)c1cc(OC[C@@](C)(O)C(C)C)n(-c2ccccc2F)n1 (single isomer, unassigned) [Example 833]
17 | 100 to 1000 nM | N#Cc1ccc([C@H](CC(=O)O)NC(=O)c2cc(O)n(-c3ccccc3F)n2)cc1 [Example 123]
18 | 100 to 1000 nM | Cc1cc(F)ccc1C(CC(=O)O)NC(=O)c1cc(O)n(-c2ccc(Cl)cc2)n1 (stereo not drawn) [Example 292]

Row | SMILES | IC50
19 | CC(C)[C@](C)(O)COc1cc(C(=O)NC(CC(=O)O)C2CCCCC2)nn1-c1ccccc1F (stereo partly drawn) [Example 803, 3-Cyclohexyl-3-{[1-(2-fluoro-phenyl)-5-((S)-2-hydroxy-2,3-dimethyl-butoxy)-1H-pyrazole-3-carbonyl]-amino}-propionic acid] | < 100 nM
20 | CC(C)C[C@@H](CC(=O)O)NC(=O)c1cc(OC[C@@](C)(O)C(C)C)n(-c2ccccc2F)n1 [Example 841, (S)-3-{[1-(2-Fluoro-phenyl)-5-((S)-2-hydroxy-2,3-dimethyl-butoxy)-1H-pyrazole-3-carbonyl]-amino}-5-methyl-hexanoic acid] | 1000 to 30000 nM
21 | CC(C)[C@](C)(O)COc1cc(C(=O)N[C@@H](CC(=O)O)c2ccc(Cl)cc2Cl)nn1-c1ccccc1F [Example 849, (S)-3-(2,4-Dichloro-phenyl)-3-{[1-(2-fluoro-phenyl)-5-((S)-2-hydroxy-2,3-dimethyl-butoxy)-1H-pyrazole-3-carbonyl]-amino}-propionic acid] | < 100 nM

Same assay, conditions: recombinant human cathepsin A 833 ng/ml, Bodipy FL-labeled bradykinin 2 μM, pH 5.5; read-out: CATH-A IC50

Row | SMILES | IC50
22 | CC(C)[C@](C)(O)COc1cc(C(=O)NC(CC(=O)O)C2CCCCC2)nn1-c1ccccc1F (stereo partly drawn) [Example 803, 3-Cyclohexyl-3-{[1-(2-fluoro-phenyl)-5-((S)-2-hydroxy-2,3-dimethyl-butoxy)-1H-pyrazole-3-carbonyl]-amino}-propionic acid] | 26.7 nM
23 | Cc1c(F)cccc1C(CC(=O)O)NC(=O)c1cc(O)n(-c2ccccc2Cl)n1 (stereo not drawn) [Example 455, 3-{[1-(2-Chloro-phenyl)-5-hydroxy-1H-pyrazole-3-carbonyl]-amino}-3-(3-fluoro-2-methyl-phenyl)-propionic acid] | 154 nM

Same assay, conditions: recombinant human cathepsin A; read-out: Activity (2): Cathepsin A inhibitory activity, IC50 class

Row | IC50 | SMILES
24 | 100 to 1000 nM | O=C(O)CC(NC(=O)c1cc(O)n(-c2cccc(F)c2)n1)c1cc(F)ccc1F (stereo not drawn) [Example 485]
25 | 100 to 1000 nM | Cc1c(F)cccc1C(CC(=O)O)NC(=O)c1cc(O)n(-c2ccccc2Cl)n1 (stereo not drawn) [Example 455, 3-{[1-(2-Chloro-phenyl)-5-hydroxy-1H-pyrazole-3-carbonyl]-amino}-3-(3-fluoro-2-methyl-phenyl)-propionic acid]
26 | 100 to 1000 nM | O=C(O)CC(NC(=O)c1cc(O)n(-c2ccccc2F)n1)c1cccc2c1OC(F)(F)O2 (stereo not drawn) [Example 476]
27 | 100 to 1000 nM | COc1cc(C(=O)N[C@@H](CC(=O)Nc2ccn(C)n2)c2ccccc2C)nn1-c1ccccc1F [Example 930, 1-(2-Fluoro-phenyl)-5-methoxy-1H-pyrazole-3-carboxylic acid [(S)-2-(1-methyl-1H-pyrazol-3-ylcarbamoyl)-1-o-tolyl-ethyl]-amide]
